In patent publication US4255183A, “Substituted phenyl urea and herbicides for use in paddy field” (Hokko Chemical Industry Co., Ltd., priority 1977, dated 1981):
Like-named read-outs stand apart in the source and are kept apart here.

Legend:
[1] = system: Echinochloa crus-galli var. oryzicola; experiment: Test Example 1: pot test on selectivity, inhibition of Echinochloa crus-galli var. oryzicola; format: in vivo; details: for inhibition at 750 g/ha / inhibition at 1500 g/ha / inhibition at 3000 g/ha / inhibition at 6000 g/ha / inhibition at 9000 g/ha: Echinochloa crus-galli, 720 h
Method: (§1) In a Wagner pot of 1/500 are, paddy field soil (alluvial soil) was placed and 50 seeds of Echinochloa crus-galli var. oryzicola and 30 seeds of paddy rice were seeded in the surface layer of said soil and the submerging depth was kept at about 1 cm. When Echinochloa crus-galli var. oryzicola reached at the one leaf stage and 5-leaf stage, the emulsion of a predetermined concentration, prepared according to Example 4 was added dropwise. After 30 days from the treatment with the chemical, dry weights of Echinochloa crus-galli var. oryzicola and paddy rice were measured and the inhibition rate was calculated with reference to untreated area. [formula]
(§2) The comparative chemicals used, i.e. DCMU and Linuron, were those commercially available, and the comparative chemicals A and B used were prepared according to the process for formulating the compound of this invention.

paddy rice [2] = experiment: Test Example 1: pot test on selectivity, inhibition of paddy rice; format: in vivo; details: for inhibition at 750 g/ha / inhibition at 1500 g/ha / inhibition at 3000 g/ha / inhibition at 6000 g/ha / inhibition at 9000 g/ha: Oryza sativa, 720 h; for selectivity between Echinochloa crus-galli var. oryzicola and paddy rice: in vivo
Method: In a Wagner pot of 1/500 are, paddy field soil (alluvial soil) was placed and 50 seeds of Echinochloa crus-galli var. oryzicola and 30 seeds of paddy rice were seeded in the surface layer of said soil and the submerging depth was kept at about 1 cm. […] After 30 days from the treatment with the chemical, dry weights of Echinochloa crus-galli var. oryzicola and paddy rice were measured and the inhibition rate was calculated with reference to untreated area. [formula]
as §2

various weeds = details: known upland herbicides; cited from earlier work
paddy rice [3] = details: known upland herbicides; cited from earlier work
[4] = system: Echinochloa crus-galli var. oryzicola; experiment: Test Example 2: concrete pot test on killing effect, Echinochloa crus-galli var. oryzicola; format: in vivo
Summary of the method: (§3)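 Barnyardgrass seeded in flooded alluvial paddy soil (~3 cm water) in concrete pots, with 2.5-leaf Asahi rice transplanted before weed emergence. Granules applied at weed 1-leaf or 5-leaf stage. Dry weights measured 30 days after treatment; inhibition rate calculated versus untreated area.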

paddy rice [5] = experiment: whole plant or invertebrate; format: in vivo, paddy rice (Asahi species); details: in vivo
Summary of the method: as §3

[6] = system: Echinochloa crus-galli var. oryzicola; experiment: Test Example 3: field test in transplanted paddy field, Echinochloa crus-galli var. oryzicola; format: in vivo; details: farm test in transplanted paddy field
Method: as §1
In a 10 m^2 paddy field, young seedlings of paddy rice (Asahi species) at the 2,5-leaf stage were transplanted 30 days after the puddling the submerging at the depth of 3-5 cm. 25 Days after the transplantation, when Echinochloa crus-galli var. oryzicola reached 4-leaf stage, a predetermined dose of the granule prepared according to Example 1 was applied. Test results were examined 60 days after the transplantation of paddy rice in the similar manner as in Test Example 1.
Comparative chemicals used were all those commercially available and in the case of the comparative chemical 2, CNP was applied 3 days after the transplantation of paddy rice and after 25 days a mixture of Benthiocarb and Simetryne was applied.

[7] = system: Echinochloa crus-galli var. oryzicola; experiment: Test Example 4: field test in submerged directly seeded paddy field, Echinochloa crus-galli var. oryzicola; format: in vivo; details: submerged direct seeding
Method: as §1
In a 10 m^2 paddy field, 30 g of Echinochloa crus-galli var. oryzicola seeds were seeded at the time of puddling and the depth of submerging was kept at 3-5 cm. 3 Days after the puddling, 50 g of paddy rice at the emergence stage (Asahi species) were seeded. When Echinochloa crus-galli var. oryzicola and paddy rice reached a 2- to 3-leaf stage, a predetermined dose of the emulsion prepared according to Example 4 was applied uniformly by means of a manual spraying machine. Test results were examined 21 days after the application of the chemicals in the similar manner as in Test Example 1.
The comparative chemical 1 used was that commercially available and the comparative chemical 2 used was prepared according to Example 4.

Bulrush = experiment: Test Example 5: Wagner pot test, herbicidal effect on Bulrush; format: in vivo
Method: (§4) In a 1/7500 are Wagner pot, sieved paddy field soil (alluvial soil) was charged. Thereafter, in the center portion of the pot, 2 roots of paddy rice (Asahi species) at the 2- to 3-leaf stage were transplanted and 20 seeds of Bulrush per pot were seeded in the surface of the above soil. The pot was submerged at the depth of about 2 cm. The other Dopatrium junceum and umbrella plant were generated naturally. After seeding, when each of the weeds reached the same leaf age as defined in Table 5 given herein, a predetermined concentration of the emulsion prepared according to Example 4 was applied dropwise on the surface of the pot. The test was carried out by repeating the same test three times per area and the results were determined 20 days after the application of the chemicals with regard to the herbicidal effect and chemical injury on paddy rice on the basis of the evaluation index as shown below.
(§5) As the comparative chemicals Molinate, Benthiocarb and DCMU, those commercially available were used.
(§6) In the above table, the inhibition rate was calculated according to the method as described in Test Example 1.

Dopatrium junceum = experiment: Test Example 5: Wagner pot test, herbicidal effect on Dopatrium junceum; format: in vivo
Method: as §4, §5, §6

Umbrella plant = experiment: Test Example 5: Wagner pot test, herbicidal effect on umbrella plant; format: in vivo; details: 20 days after application
Method: as §4, §5, §6

paddy rice [8] = experiment: Test Example 5: Wagner pot test, chemical injury on paddy rice; format: in vivo, paddy rice (Asahi species); also: key: 5: Completely killed; 4: Considerably injured; 3: Moderately injured; 2: A little injured; 1: Slightly injured; 0: Not injured
Method: as §4, §5

[9] = read-out: Inhibition (%) by treatment at 1-leaf stage, E. crus-galli var. oryzicola
[10] = read-out: Inhibition (%) by treatment at 5-leaf stage, E. crus-galli var. oryzicola
[11] = read-out: Inhibition (%) by treatment at 1-leaf stage, paddy rice
[12] = read-out: Inhibition (%) by treatment at 5-leaf stage, paddy rice
[13] = versus 3-(4-(3-chloro-2-butenyloxy)phenyl)-1,1-dimethyl urea
[14] = 300 g/10a, leaf age 3, 20 days after application
[15] = 600 g/10a, leaf age 3, 20 days after application

Row | Compound | inhibition at 750 g/ha [1, 9] | inhibition at 1500 g/ha [1, 9] | inhibition at 3000 g/ha [1, 9] | inhibition at 6000 g/ha [1, 9] | inhibition at 9000 g/ha [1, 9] | inhibition at 750 g/ha [1, 10] | inhibition at 1500 g/ha [1, 10] | inhibition at 3000 g/ha [1, 10] | inhibition at 6000 g/ha [1, 10] | inhibition at 9000 g/ha [1, 10] | inhibition at 750 g/ha (paddy rice [2]; [11]) | inhibition at 1500 g/ha (paddy rice [2]; [11]) | inhibition at 3000 g/ha (paddy rice [2]; [11]) | inhibition at 6000 g/ha (paddy rice [2]; [11]) | inhibition at 9000 g/ha (paddy rice [2]; [11]) | inhibition at 750 g/ha (paddy rice [2]; [12]) | inhibition at 1500 g/ha (paddy rice [2]; [12]) | inhibition at 3000 g/ha (paddy rice [2]; [12]) | inhibition at 6000 g/ha (paddy rice [2]; [12]) | inhibition at 9000 g/ha (paddy rice [2]; [12]) | further results
1 | CON(C)C(=O)Nc1ccc(Cl)c(Cl)c1 [Linuron, 3-(3,4-dichlorophenyl)-1-methoxy-1-methyl urea] | 82% | 100% | 100% | 100% | 100% | 72% | 100% | 100% | 100% | 100% | 81% | 100% | 100% | 100% | 100% | 53% | 100% | 100% | 100% | 100% | selectivity between Echinochloa crus-galli var. oryzicola and paddy rice (paddy rice [2]): kill not only Echinochloa crus-galli var. oryzicola but also paddy rice; herbicidal activity against various weeds (various weeds): strong herbicidal activity; chemical injury to paddy rice (paddy rice [3]): strong chemical injury to paddy rice
2 | CC=CCOc1ccc(NC(=O)N(C)C)cc1 [the compound of the invention, 3-(4-crotyloxyphenyl)-1,1-dimethyl urea] |  |  |  |  |  |  |  |  |  |  |  |  |  |  |  |  |  |  |  |  | power for killing Echinochloa crus-galli var. oryzicola at the 5-leaf stage ([1]; as compared with CBPDU): more increased; herbicidal activity against Echinochloa crus-galli var. oryzicola at 5-leaf stage [1, 13]: superior; herbicidal activity against Echinochloa crus-galli var. oryzicola ([1]; versus a compound disclosed in Japanese Pat. No. 2329/1973): superior herbicidal activity; Chemical injury on paddy rice (paddy rice [2]; as compared with CBPDU): more decreased; chemical injury (paddy rice [2]; [13]): superior; selectivity (paddy rice [2]; [13]): selectivity over a wide range; killing of Echinochloa crus-galli var. oryzicola at 5-leaf stage ([4]; 5-leaf stage): completely kill; herbicidal activity against Echinochloa crus-galli var. oryzicola at 1-leaf stage ([4]; compared with the known herbicides): similarly high herbicidal activity; Chemical injury on paddy rice (paddy rice [5]): no chemical injury on paddy rice; killing of Echinochloa crus-galli var. oryzicola not killed by conventional systematic treatment [6]: completely killed; killing of Echinochloa crus-galli var. oryzicola in submerged direct seeding cultivation [7]: selectively kill
3 | CN(C)C(=O)Nc1ccc(Cl)c(Cl)c1 [DCMU, 3-(3,4-dichlorophenyl)-1,1-dimethyl urea] | 91% | 100% | 100% | 100% | 100% | 76% | 100% | 100% | 100% | 100% | 92% | 100% | 100% | 100% | 100% | 61% | 100% | 100% | 100% | 100% | selectivity between Echinochloa crus-galli var. oryzicola and paddy rice (paddy rice [2]): kill not only Echinochloa crus-galli var. oryzicola but also paddy rice; Weed kill degree, Bulrush (Bulrush; [14]): 5 (100); Weed kill degree, Bulrush (Bulrush; 300 g/10a, leaf age 3-5, 20 days after application): 5 (100); Weed kill degree, Bulrush (Bulrush; [15]): 5 (100); Weed kill degree, Bulrush (Bulrush; 600 g/10a, leaf age 3-5, 20 days after application): 5 (100); Weed kill degree, Dopatrium junceum (Dopatrium junceum; 300 g/10a, leaf age 2, 20 days after application): 5 (100); Weed kill degree, Dopatrium junceum (Dopatrium junceum; [14]): 5 (100); Weed kill degree, Dopatrium junceum (Dopatrium junceum; 600 g/10a, leaf age 2, 20 days after application): 5 (100); Weed kill degree, Dopatrium junceum (Dopatrium junceum; [15]): 5 (100); Weed kill degree, Umbrella plant (Umbrella plant; 300 g/10a, leaf age 2 (first group of columns)): 5 (100); Weed kill degree, Umbrella plant (Umbrella plant; 300 g/10a, leaf age 2 (second group of columns)): 4-5; Weed kill degree, Umbrella plant (Umbrella plant; 600 g/10a, leaf age 2 (first group of columns)): 5 (100); Weed kill degree, Umbrella plant (Umbrella plant; 600 g/10a, leaf age 2 (second group of columns)): 5 (100); Chemical injury on paddy rice (paddy rice [8]; 300 g/10a, 3 tillers, 20 days after application): 4; Chemical injury on paddy rice (paddy rice [8]; [14]): 5; Chemical injury on paddy rice (paddy rice [8]; 600 g/10a, 3 tillers, 20 days after application): 5; Chemical injury on paddy rice (paddy rice [8]; [15]): 5; herbicidal activity against various weeds (various weeds): strong herbicidal activity; chemical injury to paddy rice (paddy rice [3]): strong chemical injury to paddy rice
